Data as given in ChEMBL document CHEMBL3621146, “Design of Potent and Orally Active GPR119 Agonists for the Treatment of Type II Diabetes” (ACS Med Chem Lett, 2015).
pEC50, pIC50: −log10 of the molar value. In brackets after ≈: the same amount, converted by molar mass. One block for each compound: values may come before it.

Tests used:
[1] = target: T1, Glucose-dependent insulinotropic receptor (Mus musculus) (UniProt Q7TQP3); experiment: Agonist activity at mouse GPR119 by cAMP assay relative to control; assay type: functional; set-up: concentration or dose not given beside the values
T1 sequence (whole entry): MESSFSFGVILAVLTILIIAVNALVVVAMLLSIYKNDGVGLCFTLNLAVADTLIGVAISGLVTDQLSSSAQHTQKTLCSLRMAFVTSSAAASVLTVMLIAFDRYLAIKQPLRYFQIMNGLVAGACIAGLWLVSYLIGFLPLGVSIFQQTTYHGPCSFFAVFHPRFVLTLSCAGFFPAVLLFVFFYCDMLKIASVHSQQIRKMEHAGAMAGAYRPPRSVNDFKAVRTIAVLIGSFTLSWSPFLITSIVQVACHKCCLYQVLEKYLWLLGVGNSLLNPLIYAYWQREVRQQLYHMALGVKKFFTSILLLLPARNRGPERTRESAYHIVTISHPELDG

[2] = target: T2, Glucose-dependent insulinotropic receptor (Homo sapiens) (UniProt Q8TDV5); experiment: Agonist activity at human GPR119 by cAMP assay relative to control; assay type: functional; set-up: concentration or dose not given beside the values
T2 sequence (whole entry): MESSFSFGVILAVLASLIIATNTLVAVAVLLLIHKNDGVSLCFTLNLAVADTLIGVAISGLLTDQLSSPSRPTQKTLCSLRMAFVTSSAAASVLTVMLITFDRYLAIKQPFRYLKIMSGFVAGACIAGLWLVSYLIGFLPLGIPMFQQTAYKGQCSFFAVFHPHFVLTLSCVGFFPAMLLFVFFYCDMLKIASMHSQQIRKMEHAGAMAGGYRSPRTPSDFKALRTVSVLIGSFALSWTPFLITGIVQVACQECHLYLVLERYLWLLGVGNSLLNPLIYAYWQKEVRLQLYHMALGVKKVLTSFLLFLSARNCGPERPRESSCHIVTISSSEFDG

[3] = Kinetic solubility in FaSSIF at pH 6.5; assay type: physicochemical; conditions: FaSSIF, read-out: Kinetic_solubility
[4] = (§1) Half life in Wistar Han rat at 0.5 mg/kg, iv LC-MS/MS method; assay type: ADME, organism-based; conditions: Wistar Han, in vivo
[5] = target: T3, Glucose-dependent insulinotropic receptor (Mus musculus, UniProt Q7TQP3); experiment: Agonist activity at mouse GPR119 by cAMP assay; assay type: functional
T3 sequence (Q7TQP3 whole entry): T1 sequence (whole entry)

[6] = target: T4, Glucose-dependent insulinotropic receptor (Homo sapiens, UniProt Q8TDV5); experiment: Agonist activity at human GPR119 expressed in CHO cells by cAMP assay; assay type: functional, cell-based
T4 sequence (Q8TDV5 whole entry): T2 sequence (whole entry)

[7] = Lipophilicity, logD of the compound at pH 7 by HPLC method; assay type: physicochemical; conditions: buffer
Rattus norvegicus [8] = experiment: as §1; assay type: ADME, organism-based; conditions: in vivo
[9] = Intrinsic clearance in rat liver microsomes; assay type: ADME; conditions: read-out: CLH
Rattus norvegicus [10] = experiment: (§2) Volume of distribution in Wistar Han rat at 0.5 mg/kg, iv LC-MS/MS method; assay type: ADME, organism-based; conditions: in vivo
Rattus norvegicus [11] = experiment: Unbound volume of distribution in Wistar Han rat at 0.5 mg/kg, iv LC-MS/MS method; assay type: ADME, organism-based; conditions: in vivo
[12] = Fraction unbound in rat plasma; assay type: ADME, cell-free
[13] = Plasma clearance in Beagle dog; assay type: ADME, organism-based, Canis lupus familiaris
[14] = Intrinsic clearance in human liver microsomes; assay type: ADME; conditions: read-out: CLH
[15] = Volume of distribution in rhesus monkey; assay type: ADME, organism-based, Macaca mulatta; conditions: in vivo
[16] = Oral bioavailability in Beagle dog; assay type: ADME, organism-based, Canis lupus familiaris; conditions: in vivo
[17] = Drug level in mouse blood at 3 mg/kg after 90 mins; assay type: ADME, organism-based; conditions: whole blood, read-out: Drug uptake
[18] = Half life in rhesus monkey; assay type: ADME, organism-based, Macaca mulatta; conditions: in vivo
[19] = Half life in Beagle dog; assay type: ADME, organism-based, Canis lupus familiaris; conditions: in vivo
[20] = Solubility in SGF; assay type: physicochemical
[21] = Plasma clearance in Wistar Han rat at 0.5 mg/kg, iv LC-MS/MS method; assay type: ADME, organism-based
[22] = target: T5, Nuclear receptor subfamily 1 group I member 2 (Homo sapiens, UniProt O75469); experiment: Activation of human PXR; assay type: ADME
T5 sequence (O75469 whole entry): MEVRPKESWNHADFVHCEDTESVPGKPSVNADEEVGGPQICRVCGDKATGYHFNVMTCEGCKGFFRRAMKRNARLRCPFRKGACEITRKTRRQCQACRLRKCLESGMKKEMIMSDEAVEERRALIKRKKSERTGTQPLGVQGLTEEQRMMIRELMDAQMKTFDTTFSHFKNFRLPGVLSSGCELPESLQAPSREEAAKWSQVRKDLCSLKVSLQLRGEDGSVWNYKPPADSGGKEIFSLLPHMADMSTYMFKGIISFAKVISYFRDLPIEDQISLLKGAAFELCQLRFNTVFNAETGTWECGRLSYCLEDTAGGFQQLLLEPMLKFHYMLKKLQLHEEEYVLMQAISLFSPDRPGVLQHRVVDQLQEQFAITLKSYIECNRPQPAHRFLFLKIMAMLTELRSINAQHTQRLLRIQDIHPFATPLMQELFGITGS

[23] = Intrinsic clearance in monkey liver microsomes; assay type: ADME, Macaca mulatta; conditions: rhesus monkey, read-out: CLH
[24] = Drug level in mouse blood at 1 mg/kg after 90 mins; assay type: ADME, organism-based; conditions: whole blood, read-out: Drug uptake
[25] = Fraction unbound in dog plasma; assay type: ADME, cell-free, Canis lupus familiaris
[26] = Drug level in mouse blood at 10 mg/kg after 90 mins; assay type: ADME, organism-based; conditions: whole blood, read-out: Drug uptake
Mus musculus [27] = experiment: Reduction in blood glucose excursion in po dosed C57BL/6 Tac mouse by OGTT method; assay type: functional, organism-based
Cavia porcellus = organism: Cavia porcellus; experiment: Toxicity in guinea pig assessed as effect on cardiovascular parameters at 64 times over target clinical exposure level; assay type: organism-based, Heart; conditions: in vivo
[28] = as §2; assay type: ADME, organism-based; conditions: Wistar Han, in vivo
Cytochrome P450 3A4 = Cytochrome P450 3A4 (Homo sapiens, UniProt P08684); experiment: Inhibition of CYP3A4 (unknown origin)
Sequence of Cytochrome P450 3A4 (P08684 whole entry): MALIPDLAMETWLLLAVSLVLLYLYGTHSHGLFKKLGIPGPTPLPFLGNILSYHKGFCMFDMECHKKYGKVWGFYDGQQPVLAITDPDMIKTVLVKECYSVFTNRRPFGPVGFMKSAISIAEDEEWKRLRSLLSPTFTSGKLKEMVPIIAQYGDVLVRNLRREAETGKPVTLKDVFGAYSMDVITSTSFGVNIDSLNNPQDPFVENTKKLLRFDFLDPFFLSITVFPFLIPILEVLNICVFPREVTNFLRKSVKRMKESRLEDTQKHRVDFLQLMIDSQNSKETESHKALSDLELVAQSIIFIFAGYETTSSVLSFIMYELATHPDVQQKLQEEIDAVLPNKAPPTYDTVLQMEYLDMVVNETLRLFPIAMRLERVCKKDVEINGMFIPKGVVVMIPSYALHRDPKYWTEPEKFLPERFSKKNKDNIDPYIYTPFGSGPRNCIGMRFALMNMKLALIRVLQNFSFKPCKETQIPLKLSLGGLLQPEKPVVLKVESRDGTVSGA

[29] = Solubility in FaSSIF; assay type: physicochemical; conditions: simulated gi fluid
[30] = Fraction unbound in human plasma; assay type: ADME, cell-free
[31] = Plasma clearance in rhesus monkey; assay type: ADME, organism-based, Macaca mulatta
[32] = target: T5, Nuclear receptor subfamily 1 group I member 2; experiment: Activation of human PXR relative to control; assay type: ADME
[33] = Intrinsic clearance in dog liver microsomes; assay type: ADME, Canis lupus familiaris; conditions: read-out: CLH
[34] = Drug level in mouse blood at 0.3 mg/kg after 90 mins; assay type: ADME, organism-based; conditions: whole blood, read-out: Drug uptake
[35] = Oral bioavailability in rhesus monkey; assay type: ADME, organism-based, Macaca mulatta; conditions: in vivo
[36] = Solubility in PEG200; assay type: physicochemical
[37] = Fraction unbound in rhesus monkey plasma; assay type: ADME, cell-free, Macaca mulatta
Mus musculus [38] = experiment: Reduction in blood glucose excursion in po dosed C57BL/6 Tac mouse assessed as minimal dose for maximum efficacy by OGTT method; assay type: functional; conditions: read-out: MED
[39] = Oral bioavailability in Wistar Han rat; assay type: ADME, organism-based; conditions: in vivo
[40] = Volume of distribution in Beagle dog; assay type: ADME, organism-based, Canis lupus familiaris; conditions: in vivo
[41] = Solubility in PEG400; assay type: physicochemical

- Activity [1]: 109%
- Activity [2]: 87%
Compound: COC(C)c1cnc(N2CCC([C@H]3C[C@H]3COCc3ccc(S(C)(=O)=O)cc3F)CC2)nc1 (stereo in doubt; 29)

- solubility kinetic [3]: 151 µM (≈ 67.9 µg/mL)
- half-life [4]: 0.6 h
- pEC50 [5]: 8.85
- pEC50 [6]: 8.35
- Activity [1]: 85%
- logD [7]: 4
- Activity [2]: 79%
Compound: COc1cnc(N2CCC([C@H]3C[C@H]3COCc3ccc(S(C)(=O)=O)cc3F)CC2)nc1

- solubility kinetic [3]: 92 µM (≈ 40.3 µg/mL)
- half-life [4]: 1.5 h
- pEC50 [5]: 8.35
- pEC50 [6]: 8.62
- Activity [1]: 131%
- logD [7]: 4.2
- Activity [2]: 85%
Compound: CS(=O)(=O)c1ccc(COC[C@@H]2C[C@@H]2C2CCN(c3ncc(F)cn3)CC2)cc1F

- solubility kinetic [3]: 61 µM (≈ 28.4 µg/mL)
- t1/2 (Rattus norvegicus [8]): 6.5 h
- CLint scaled [9]: 675 mL/min/kg
- pEC50 [6]: 8.77
- Vd (Rattus norvegicus [10]): 4.8 L/kg
- Vdu (Rattus norvegicus [11]): 242 L/kg
- logD [7]: 4.2
- fraction unbound [12]: 0.02
- Activity [2]: 69%
Compound: CCS(=O)(=O)c1ccc(OCC[C@@H]2C[C@@H]2C2CCN(c3nc(C(C)C)no3)CC2)c(F)c1

- solubility kinetic [3]: 155 µM (≈ 71.9 µg/mL)
- half-life [4]: 1.2 h
- pEC50 [5]: 8.28
- pEC50 [6]: 8.48
- Activity [1]: 87%
- logD [7]: 3.5
- Activity [2]: 94%
Compound: COCc1cnc(N2CCC([C@H]3C[C@H]3COCc3ccc(S(C)(=O)=O)c(F)c3)CC2)nc1

- Activity [1]: 70%
- Activity [2]: 95%
Compound: COC(C)c1cnc(N2CCC([C@H]3C[C@H]3COCc3ccc(S(C)(=O)=O)cc3F)CC2)nc1 (stereo in doubt; 30) [listing 1 of 2 here]

- solubility kinetic [3]: 101 µM (≈ 46.8 µg/mL)
- half-life [4]: 0.8 h
- pEC50 [5]: 8.64
- pEC50 [6]: 8.77
- Activity [1]: 96%
- logD [7]: 4.2
- Activity [2]: 75%
Compound: CCOc1cnc(N2CCC([C@H]3C[C@H]3COCc3ccc(S(C)(=O)=O)c(F)c3)CC2)nc1

- solubility kinetic [3]: 129 µM (≈ 61.6 µg/mL)
- half-life [4]: 2.1 h
- pEC50 [5]: 7.90
- pEC50 [6]: 8.15
- Activity [1]: 87%
- logD [7]: 3.8
- Activity [2]: 58%
Compound: CCS(=O)(=O)c1ccc(COC[C@@H]2C[C@@H]2C2CCN(c3ncc(COC)cn3)CC2)c(F)c1

- solubility kinetic [3]: 137 µM (≈ 65.4 µg/mL)
- t1/2 (Rattus norvegicus [8]): 1 h
- pEC50 [5]: 8.48
- pEC50 [6]: 8.34
- logD [7]: 3.9
Compound: COC(C)c1cnc(N2CCC([C@H]3C[C@H]3COCc3ccc(S(C)(=O)=O)cc3F)CC2)nc1 (stereo in doubt; 30) [listing 2 of 2 here]

- clearance [13]: 6 mL/min/kg
- CLint scaled [14]: 42 mL/min/kg
- Vd [15]: 2 L/kg
- solubility kinetic [3]: 161 µM (≈ 74.6 µg/mL)
- bioavailability [16]: 60%
- half-life [4]: 1 h
- concentration at 1.5 h [17]: 302 nM
- half-life [18]: 2.3 h
- half-life [19]: 17 h
- solubility [20]: 870 µg/mL (≈ 1880 µM)
- pEC50 [5]: 8.72
- clearance [21]: 41 mL/min/kg
- pEC50 [22]: < 4.52
- CLint scaled [9]: 1100 mL/min/kg
- CLint scaled [23]: 319 mL/min/kg
- concentration at 1.5 h [24]: 86 nM
- fraction unbound [25]: 0.055
- pEC50 [6]: 8.68
- concentration at 1.5 h [26]: 622 nM
- Vd [28]: 2.2 L/kg
- Vdu (Rattus norvegicus [11]): 54 L/kg
- pIC50 (Cytochrome P450 3A4): 4.40
- solubility [29]: 56 µg/mL (≈ 121 µM)
- fraction unbound [30]: 0.049
- clearance [31]: 16 mL/min/kg
- Activity [32]: 39%
- CLint scaled [33]: 60 mL/min/kg
- concentration at 1.5 h [34]: 18 nM
- Activity [1]: 97%
- logD [7]: 3.5
- bioavailability [35]: 5%
- solubility [36]: 129000 µg/mL (≈ 278000 µM)
- fraction unbound [37]: 0.032
- fraction unbound [12]: 0.041
- bioavailability [39]: 27%
- Vd [40]: 6.5 L/kg
- solubility [41]: 325000 µg/mL (≈ 701000 µM)
- Activity [2]: 88%
Compound: COCc1cnc(N2CCC([C@H]3C[C@H]3COCc3ccc(S(C)(=O)=O)cc3F)CC2)nc1
- Activity (Mus musculus [27]): Dose-dependent effect
- Activity (Cavia porcellus): Non-toxic
- minimal effective dose (Mus musculus [38]): 3 mg/kg

- solubility kinetic [3]: 140 µM (≈ 62.7 µg/mL)
- half-life [4]: 1 h
- pEC50 [5]: 8.26
- pEC50 [6]: 8.60
- Activity [1]: 115%
- logD [7]: 4.3
- Activity [2]: 98%
Compound: CCc1cnc(N2CCC([C@H]3C[C@H]3COCc3ccc(S(C)(=O)=O)c(F)c3)CC2)nc1
